From patent publication US12157727B2, “Substituted tetrahydroquinolin compounds as indoleamine 2,3-dioxygenase (IDO) inhibitors” (Merck Sharp & Dohme LLC, priority 2019, dated 2024) come the findings set out here.

For the assay, the target named is T1, IDO1 (Homo sapiens, UniProt P14902).
T1 construct: Human whole blood was drawn in sodium heparin coated tubes from healthy internal donors; from tissue; host or cells: human whole blood from healthy donors, stimulated with LPS and IFNγ
T1 sequence (P14902 whole entry): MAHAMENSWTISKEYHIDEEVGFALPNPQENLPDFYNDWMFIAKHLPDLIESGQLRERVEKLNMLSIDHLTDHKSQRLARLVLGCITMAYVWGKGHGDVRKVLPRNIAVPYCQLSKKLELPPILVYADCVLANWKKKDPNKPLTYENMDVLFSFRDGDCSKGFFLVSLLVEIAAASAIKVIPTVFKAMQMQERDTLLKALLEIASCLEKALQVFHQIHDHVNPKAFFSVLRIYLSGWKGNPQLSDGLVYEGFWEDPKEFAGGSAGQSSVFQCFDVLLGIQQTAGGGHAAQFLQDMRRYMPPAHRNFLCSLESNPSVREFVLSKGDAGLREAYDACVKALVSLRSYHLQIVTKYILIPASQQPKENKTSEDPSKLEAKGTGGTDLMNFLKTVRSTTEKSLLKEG
The assay can be described thus: IDO1 Human Whole Blood Assay. In kind it is cell-based. Particulars: LPS and IFNγ 100 ng/mL, overnight (18 h), kynurenine by LC/MS/MS. How it is done:
Compounds to be tested were serially diluted in ten 3-fold steps in DMSO starting from 10 mM. 3 μL of compound dilutions or DMSO alone were then dispensed from the dilution plate into a polypropylene 96-well assay plate containing 97 μL of RPMI using an Echo 555 acoustic liquid handler (Labcyte). LPS and IFNγ was prepared in RPMI to a 10× of final conc. (1000 ng/mL), final concentration is 100 ng/mL.
Human whole blood was drawn in sodium heparin coated tubes from healthy internal donors. 240 μL of blood was transferred to each of the wells of a v-bottom 96 well plate. 30 μL of compound was transferred from intermediate dilution plate, and incubated for 15 min. 30 μL from stimulants was then transferred to blood and mixed thoroughly. Plate was covered with breathable membrane and incubated at 37° C. for overnight (18 h).
On day 2 isotope labeled standard of kynurenine and tryptophan was made in water at 10×concentration and 30 μL was added to the blood at 3 μM final concentration. The assay plates were centrifuged at 300×G for 10 min with no brake to separate plasma from red blood cells. 60 μL of plasma samples was removed without disturbing red blood cells. Plasma was diluted with RPMI in 1:1 ratio and proteins were precipitated out with two volumes of Acetonitrile. The plates were centrifuged at 4000×G for 60 min. 20 μL of supernatant was carefully transferred to a 384 well plate contain 40 μL of 0.1% formic acid in water and analyzed by LC/MS/MS.
LC/MS/MS analyses were performed using Thermo Fisher's LX4-TSQ Quantum Ultra system. This system consists of four Agilent binary high-performance liquid chromatography (HPLC) pumps and a TSQ Quantum Ultra triple quadrupole MS/MS instrument. For each sample, 5 μL were injected onto an Atlantis T3 column (2.1 mm×150 mm, 3 μm particle size) from Waters. The mobile phase gradient pumped at 0.8 mL/min was used to elute the analytes from the column at 25° C. The elution started at 0% B increasing linearly to 25% B at 6.5 min, holding at 25% for 1 min, re-equilibrating to 10 min. Mobile phase A consisted of 0.1% formic acid in water. Mobile phase B consisted of 0.1% of formic acid in acetonitrile. Data was acquired in positive mode using a HESI interface. The operational parameters for the TSQ Quantum Ultra instrument were a spray voltage of 4000 V, capillary temperature of 380° C., vaporizer temperature 400° C., shealth gas 60 arbitrary units, Aux gas 20 arbitrary units, tube lens 85 and collision gas 1.2 mTorr. SRM chromatograms of kynurenine (Q1: 209.2>Q3:94.0) and internal standard (Q1: 215.3>Q3:98.2) were collected for 90 sec. The peak area was integrated by Xcalibur Quan software. The ratios between the kynurenine generated in the reaction and 2D6-Kynurenine spiked-in internal standard were used to generate percentage inhibition and IC50 values. Compounds were titrated and IC50' s were calculated by 4 parameter sigmoidal curve fitting formula.
Turning to `Cc1nccc(N2CCCc3nc(C4(c5nc6cc(Cl)ccc6[nH]5)CCC4)ccc32)n1` [Example 34, 6-[1-(6-chloro-1H-benzimidazol-2-yl)cyclobutyl]-1-(2-methylpyrimidin-4-yl)-1,2,3,4-tetrahydro-1,5-naphthyridine], the midpoint of inhibition, the IC50, lay at 140 nM.

On to `CC(c1ccc2c(n1)CCCN2C(=O)OC1CC1)c1nc2ccc(Cl)cc2[nH]1` (stereo not drawn) [Example 25, cyclopropyl 6-(1-(6-chloro-1H-benzo[d]imidazol-2-yl)ethyl)-3,4-dihydro-1,5-naphthyridine-1(2H)-carboxylate], for which 117 nM corresponded to half-maximal inhibition (IC50). This IC50 and that of the compound before are within 1.5-fold of each other.

Regarding `N#Cc1cnc2nc(C3(c4ccc5c(n4)CCCN5C(=O)OC4CC4)CCC3)[nH]c2c1` [Example 24, cyclopropyl 6-[1-(6-cyano-1H-imidazo[4,5-b]pyridin-2-yl)cyclobutyl]-3,4-dihydro-1,5-naphthyridine-1(2H)-carboxylate], the half-inhibitory concentration (IC50) came to 121 nM.

`FC(F)(F)c1nccc(N2CCCc3nc(C4(c5nc6cc(Cl)cnc6[nH]5)CCC4)ccc32)n1` [Example 35, 6-[1-(6-chloro-3H-imidazo[4,5-b]pyridin-2-yl)cyclobutyl]-1-[2-(trifluoromethyl)pyrimidin-4-yl]-1,2,3,4-tetrahydro-1,5-naphthyridine] showed an IC50 of 53.9 nM.

As for `C[C@@H](c1ccc2c(n1)CCCN2C(=O)OC1CC1)c1nc2ccc(Cl)cc2[nH]1` [Example 26, cyclopropyl (S)-6-(1-(6-chloro-1H-benzo[d]imidazol-2-yl)ethyl)-3,4-dihydro-1,5-naphthyridine-1(2H)-carboxylate], half-maximal inhibition (IC50) was put at 55 nM.

In turn, `O=C([C@H]1CCCO1)N1CCCc2cc(C3(c4nc5ncc(C(F)(F)F)cc5[nH]4)CCC3)ccc21` [Example 3, [(2R)-oxolan-2-yl][6-{1-[6-(trifluoromethyl)-1H-imidazo[4,5-b]pyridin-2-yl]cyclobutyl}-3,4-dihydroquinolin-1(2H)-yl]methanone] came in with an IC50 of 30.7 nM.

`N#Cc1ccc2nc(C3(c4ccc5c(n4)CCCN5c4ccnc(C(F)(F)F)n4)CC4(CC4)C3)[nH]c2c1` [Example 41, 2-(5-(5-(2-(trifluoromethyl)pyrimidin-4-yl)-5,6,7,8-tetrahydro-1,5-naphthyridin-2-yl)spiro[2,3]hexan-5-yl)-1H-benzo[d]imidazole-6-carbonitrile] displayed an IC50 of 71.3 nM. Against the preceding compound, the IC50 is about 2.3-fold higher.

`O=C(OC1CC1)N1CCCc2nc(C3(c4nc5ccc(Cl)cc5[nH]4)CCC3)ccc21` [Example 21, cyclopropyl 6-[1-(6-chloro-1H-benzimidazol-2-yl)cyclobutyl]-3,4-dihydro-1,5-naphthyridine-1(2H)-carboxylate] had an IC50 of 44.1 nM.

Compound `O=C(c1ccccc1Cl)N1CCCc2nc(C3(c4nc5ncc(C(F)(F)F)cc5[nH]4)CCC3)ccc21` [Example 17, (2-chlorophenyl)[6-{1-[6-(trifluoromethyl)-1H-imidazo[4,5-b]pyridin-2-yl]cyclobutyl}-3,4-dihydro-1,5-naphthyridin-1(2H)-yl]methanone] came in with a half-inhibitory concentration (IC50) of 47.8 nM.

The compound `COC(=O)N1CCCc2cc(C3(c4nc5ncc(C(F)(F)F)cc5[nH]4)CCC3)ccc21` [Example 5, Methyl 6-(1-(6-(trifluoromethyl)-1H-imidazo[4,5-b]pyridin-2-yl)cyclobutyl)-3,4-dihydroquinoline-1(2H)-carboxylate] showed a 50% inhibitory concentration (IC50) of 229 nM. This IC50 is about 4.8-fold higher than that of the compound before.

`O=C(OC1CC1)N1CCCc2nc(C3(c4nc5ncc(C(F)(F)F)cc5[nH]4)CCC3)ccc21` [Example 23, cyclopropyl 6-{1-[6-(trifluoromethyl)-1H-imidazo[4,5-b]pyridin-2-yl]cyclobutyl}-3,4-dihydro-1,5-naphthyridine-1(2H)-carboxylate]: it took 64.2 nM to reach half-maximal inhibition (IC50). This IC50 is about 3.6-fold lower than that of the compound before.

Turning to `O=C(OC1CC1)N1CCCc2nc(C3(c4nc5ncc(Cl)cc5[nH]4)CCC3)ccc21` [Example 22, cyclopropyl 6-[1-(6-chloro-1H-imidazo[4,5-b]pyridin-2-yl)cyclobutyl]-3,4-dihydro-1,5-naphthyridine-1(2H)-carboxylate], half-maximal inhibition (IC50) required 60.5 nM.

Consider `O=C(C1CC1)N1CCCc2cc(C3(c4nc5ncc(C(F)(F)F)cc5[nH]4)CCC3)ccc21` [Example 1, Cyclopropyl(6-(1-(6-(trifluoromethyl)-1H-imidazo[4,5-b]pyridin-2-yl)cyclobutyl)-3A-dihydroquinolin-1(2H)-yl)methanone], for which the half-inhibitory concentration (IC50) was 186 nM. This IC50 lies about 3.1-fold higher than the previous one.

`N#Cc1ccc2nc(C3(c4ccc5c(c4)CCCN5C(=O)C4CC4)CCC3)[nH]c2c1` [Example 4, 2-{1-[1-(cyclopropane-carbonyl)-1,2,3,4-tetrahydroquinolin-6-yl]cyclobutyl}-1H-benzimidazole-6-carbonitrile] gave a concentration for half-maximal inhibition (IC50) of 27 nM.

The compound `N#Cc1ccc2nc(C3(c4ccc5c(n4)CCCN5C(=O)OC4CC4)CCC3)[nH]c2c1` [Example 20, cyclopropyl 6-[1-(6-cyano-1H-benzimidazol-2-yl)cyclobutyl]-3,4-dihydro-1,5-naphthyridine-1(2H)-carboxylate] had an IC50 of 35 nM.

As to `C[C@H](c1ccc2c(n1)CCCN2C(=O)OC1CC1)c1nc2ccc(Cl)cc2[nH]1` [Example 27, cyclopropyl (R)-6-(1-(6-chloro-1H-benzo[d]imidazol-2-yl)ethyl)-3,4-dihydro-1,5-naphthyridine-1(2H)-carboxylate], half-maximal inhibition (IC50) required 56.8 nM.

Compound `CCOC(=O)N1CCCc2nc(C3(c4nc5cc(C(F)(F)F)cnc5[nH]4)CCC3)ccc21` [Example 19, ethyl 6-{1-[6-(trifluoromethyl)-3H-imidazo[4,5-b]pyridin-2-yl]cyclobutyl}-3,4-dihydro-1,5-naphthyridine-1(2H)-carboxylate] had an IC50 of 274 nM.

`COC(=O)N1CCCc2nc(C3(c4nc5cc(C(F)(F)F)cnc5[nH]4)CCC3)ccc21` [Example 18, methyl 6-(1-(6-(trifluoromethyl)-3H-imidazo[4,5-b]pyridin-2-yl)cyclobutyl)-3,4-dihydro-1,5-naphthyridine-1(2H),-carboxylate]: it took 494 nM to reach half-maximal inhibition (IC50).

`Cc1nccc(N2CCCc3nc(C4(c5nc6cc(C(F)(F)F)cnc6[nH]5)CCC4)ccc32)n1` [Example 30, 1-(2-methylpyrimidin-4-yl)-6-(1-(6-(trifluoromethyl)-3H-imidazo[4,5-b]pyridin-2-vyl)cyclobutyl)-1,2,3,4-tetrahydro-1,5-naphthyridine]: inhibition was half-maximal at 355 nM (IC50).

On to `O=C([C@@H]1CCCCO1)N1CCCc2nc(C3(c4nc5ncc(C(F)(F)F)cc5[nH]4)CCC3)ccc21` [Example 15, (S)-(tetrahydro-2H-pyran-2-yl)(6-(1-(6-(trifluoromethyl)-1H-imidazo[4,5-b]pyridin-2-yl)cyclobutyl)-3,4-dihydro-1,5-naphthyridin-1(2H)-yl)methanone], for which the half-inhibitory concentration (IC50) was determined as 26.1 nM.

With `FC(F)(F)c1nccc(N2CCCc3nc(C4(c5nc6cc(Cl)ccc6[nH]5)CCC4)ccc32)n1` [Example 33, 6-[1-(5-chloro-1H-benzimidazol-2-yl)cyclobutyl]-1-[2-(trifluoromethyl)pyrimidin-4-yl]-1,2,3,4-tetrahydro-1,5-naphthyridine], the IC50 was 83.3 nM. This IC50 is about 3.2-fold higher than that of the compound before.

Turning to `O=C([C@H]1CCCCO1)N1CCCc2nc(C3(c4nc5ncc(C(F)(F)F)cc5[nH]4)CCC3)ccc21` [Example 16, (R)-(tetrahydro-2H-pyran-2-yl)(6-(1-(6-(trifluoromethyl)-1H-imidazo[4,5-b]pyridin-2-yl)cyclobutyl)-3,4-dihydro-1,5-naphthyridin-1(2H)-yl)methanone], inhibition was half-maximal at 14.1 nM (IC50).

Compound `O=C(C1CC1)N1CCCc2nc(C3(c4nc5cc(C(F)(F)F)cnc5[nH]4)CCC3)ccc21` [Example 13, Cyclopropyl(6-(1-(6-(trifluoromethyl)-3H-imidazo[4,5-b]pyridin-2-yl)cyclobutyl)-3,4-dihydro-1,5-naphthyridin-1(2H),-yl)methanone] came in with an IC50 of 56.3 nM.

Regarding `O=C(C1CC1)N1CCCc2cc(C3(c4nc5ccc(Cl)cc5[nH]4)CCC3)ccc21` [Example 2, {6-[1-(6-chloro-1H-benzimidazol-2-yl)cyclobutyl]-3,4-dihydroquinolin-1(2H)-yl}(cyclopropyl) methanone], the 50% inhibitory concentration (IC50) worked out at 132 nM. Against the preceding compound, the IC50 is about 2.3-fold higher.
